Results taken from patent US12559529B2, “NPY2 receptor agonists” (Boehringer Ingelheim International GmbH, priority 2019, dated 2026).

What was measured:
human NPY5 receptor = target: T1, human NPY5 receptor (Homo sapiens, UniProt Q15761); assay: HTRF cAMP Gi assay, hY5R
T1 sequence (Q15761 1-445): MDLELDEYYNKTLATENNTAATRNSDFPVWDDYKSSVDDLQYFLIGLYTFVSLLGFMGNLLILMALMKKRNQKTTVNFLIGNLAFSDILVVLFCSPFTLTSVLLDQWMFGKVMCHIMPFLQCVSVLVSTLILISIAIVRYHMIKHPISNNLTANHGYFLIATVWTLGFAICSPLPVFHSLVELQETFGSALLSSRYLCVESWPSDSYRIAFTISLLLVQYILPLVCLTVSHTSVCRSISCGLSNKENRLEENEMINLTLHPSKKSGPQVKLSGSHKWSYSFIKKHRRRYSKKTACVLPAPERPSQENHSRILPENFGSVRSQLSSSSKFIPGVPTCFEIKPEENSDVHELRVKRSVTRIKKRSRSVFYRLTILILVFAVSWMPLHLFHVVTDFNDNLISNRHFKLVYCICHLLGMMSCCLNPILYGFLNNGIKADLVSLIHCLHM
Description: (§1) The Homogenous Time Resolved fluorescence (HTRF) technology optimized for Gi coupled receptors has thoroughly been described in Cisbio cAMP Gi kit manual. Briefly, the production of intracellular cAMP will generate a competition between unlabeled cAMP and exogenously added d2-cAMP for anti-cAMP antibodies conjugated to cryptate. CHO-K1 cells stably expressing the human NPY1, NPY2, NPY4 and NPY5 receptors were used with the cells brought to life from a frozen stock immediately before assay performance. 2000 cells per well were applied for all four NPY receptor subtype assays. A 384-well format was used applying a total volume of 20 μl using 5 μl cells, 2.5 μl peptide agonist, 2.5 μl forskolin and 5 μl of each of the fluorophores. […] Concentration-response evaluation of compounds was performed with 11 concentrations of agonist peptides (covering 3 decades). EC50 values were calculated by nonlinear regression using sigmoid concentration-response with variable slope.

human NPY2 receptor = target: T2, human NPY2 receptor (Homo sapiens, UniProt P49146); assay: HTRF cAMP Gi assay, hY2R
T2 sequence (P49146 1-381): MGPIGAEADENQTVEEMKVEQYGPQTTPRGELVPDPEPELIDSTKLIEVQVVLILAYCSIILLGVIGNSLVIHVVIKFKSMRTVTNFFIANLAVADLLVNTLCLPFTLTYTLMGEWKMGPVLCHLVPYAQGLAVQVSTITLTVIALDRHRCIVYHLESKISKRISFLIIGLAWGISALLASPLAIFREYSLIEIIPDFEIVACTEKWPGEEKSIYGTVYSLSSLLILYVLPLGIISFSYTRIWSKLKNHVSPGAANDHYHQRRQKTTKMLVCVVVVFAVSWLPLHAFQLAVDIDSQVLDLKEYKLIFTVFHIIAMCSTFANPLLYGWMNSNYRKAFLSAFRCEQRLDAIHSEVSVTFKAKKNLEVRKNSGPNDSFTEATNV
Description: Briefly, the production of intracellular cAMP will generate a competition between unlabeled cAMP and exogenously added d2-cAMP for anti-cAMP antibodies conjugated to cryptate. CHO-K1 cells stably expressing the human NPY1, NPY2, NPY4 and NPY5 receptors were used with the cells brought to life from a frozen stock immediately before assay performance. 2000 cells per well were applied for all four NPY receptor subtype assays. A 384-well format was used applying a total volume of 20 μl using 5 μl cells, 2.5 μl peptide agonist, 2.5 μl forskolin and 5 μl of each of the fluorophores. […] Concentration-response evaluation of compounds was performed with 11 concentrations of agonist peptides (covering 3 decades). EC50 values were calculated by nonlinear regression using sigmoid concentration-response with variable slope.

human NPY4 receptor = target: T3, human NPY4 receptor (Homo sapiens, UniProt P50391); assay: HTRF cAMP Gi assay, hY4R; assay type: cell-based; settings: Table 4; CHO-K1 cells
T3 construct: expressed in transfected cells; host or cells: CHO-K1
Description: as §1

[1] = target: T4, Human Neuropeptide Y2 Receptor (Homo sapiens, UniProt P49146); assay: Activity (RLB) after incubation in solutions at different pH values; assay type: binding; settings: apparent Ki of filtrate after 2 h in buffer
T4 construct: purchased CHEMICON HTS066M
T4 sequence (P49146 1-381): T2 sequence (P49146 1-381)
Description: The filtration RLB assay was carried out in 96-well plates in a final volume of 100 μl per well. Freeze-dried test peptides were dissolved in 100% dimethyl sulfoxide (DMSO) to stock solutions of 1 mM and serial dilutions were performed in assay buffer (50 mM HEPES, 5 mM MgCl2, 1 mM CaCl2), pH 7.4) containing 0.2% ovalbumin. […] Next, 80 μL membranes (HTS066M, ChemiSCREEN™ Human Neuropeptide Y2 Receptor Membrane Preparation, CHEMICON) were added to each well to give a final protein concentration of 0.5 μg/well. The plates were sealed and incubated at room temperature for 2 hours in a plate shaker set at 400 rpm. The incubation was stopped by vacuum filtration onto 0.5% poly-ethylene amine (PEI) presoaked GF/C filters using a 96-well FilterMate™ harvester (Perkin Elmer) followed by four washes with 300 μl/well ice-cold wash buffer (50 mM HEPES, 500 mM NaCl, pH7.4). Filter plates were then dried for 60 min at room temperature and the bottom of the plates was sealed with backing tape UniFilter-96. Finally, 50 μl/well scintillation counter cocktail (Microscint20, Packard) was added and the radioactivity was counted in the Packard TopCount NXT scintillation counter. IC50 values (the half maximal inhibitory concentration of the agonist) were calculated by nonlinear regression analysis of sigmoidal dose-response curves.
Peptides (as TFA salts) were weighed out in a filter unit (Mini-UniPrep Syringeless Filter 0.45 μm, Whatman), and 0.1 M sodium diphosphate buffer at pH 6.4 or 7.4, respectively, or 0.2 M TRIS buffer at pH 8.3 was added to achieve 10 mg/ml final concentration. The peptide was (partially) dissolved by shaking the filter unit horizontally at approx. 400 rpm for 2 hours at room temperature. The sample was filtered to remove any insoluble particles.

[2] = target: T4, Human Neuropeptide Y2 Receptor; assay: Radioligand binding competition assay (RLB)
Procedure, shortened: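 Peptide dilutions made in pH 7.4 HEPES assay buffer with 0.2% ovalbumin; human Y2 receptor membranes added at 0.5 μg protein/well; plates shaken 2 h at room temperature; reaction stopped by vacuum filtration onto PEI-treated GF/C filters with ice-cold high-salt washes; radioactivity counted by scintillation.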

human NPY1 receptor = target: T5, human NPY1 receptor (Homo sapiens, UniProt P25929); assay: HTRF cAMP Gi assay, hY1R; assay type: cell-based; settings: Table 4; CHO-K1 cells
T5 construct: expressed in transfected cells; host or cells: CHO-K1
T5 sequence (P25929 1-384): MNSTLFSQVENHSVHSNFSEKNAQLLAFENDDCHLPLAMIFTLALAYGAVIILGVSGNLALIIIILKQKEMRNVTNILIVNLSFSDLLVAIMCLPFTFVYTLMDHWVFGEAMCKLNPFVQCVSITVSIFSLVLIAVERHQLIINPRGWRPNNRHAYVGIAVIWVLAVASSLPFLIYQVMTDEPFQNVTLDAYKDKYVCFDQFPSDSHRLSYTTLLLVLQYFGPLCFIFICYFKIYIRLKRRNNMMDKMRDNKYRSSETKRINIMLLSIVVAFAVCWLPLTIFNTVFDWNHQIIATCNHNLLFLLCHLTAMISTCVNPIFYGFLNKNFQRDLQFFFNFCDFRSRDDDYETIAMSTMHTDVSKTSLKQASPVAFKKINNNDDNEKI

normal NMRI mice = assay: Effect on acute food intake in normal NMRI mice; assay type: in vivo; settings: male NMRI mice, 10 nmol/kg subcutaneously once
Procedure, shortened: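 Male NMRI mice acclimatized in an HM-2 real-time food intake monitoring system, fasted 6 h before dark phase. Single subcutaneous dose of 10 nmol/kg peptide given 1 h before dark; n=7-8. Food intake expressed as % of vehicle group (50 mM phosphate pH7, 5% Mannitol).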

[3] = pH6.1-6.2, assumed 10 mg/ml, read-out: RLB 6 (pH6.1-6.2)
[4] = pH7.1-7.2, assumed 10 mg/ml, read-out: RLB 7 (pH7.1-7.2)
[5] = pH8.1-8.2, assumed 10 mg/ml, read-out: RLB 8 (pH8.1-8.2)
[6] = Table 3, human 125I-PYY (1-36) 0.02 nM, Y2 receptor membranes, read-out: Ki
[7] = Table 8, from DMSO stock, read-out: hY2R RLB Ki (nM) DMSO

T3 sequence (P50391 whole entry): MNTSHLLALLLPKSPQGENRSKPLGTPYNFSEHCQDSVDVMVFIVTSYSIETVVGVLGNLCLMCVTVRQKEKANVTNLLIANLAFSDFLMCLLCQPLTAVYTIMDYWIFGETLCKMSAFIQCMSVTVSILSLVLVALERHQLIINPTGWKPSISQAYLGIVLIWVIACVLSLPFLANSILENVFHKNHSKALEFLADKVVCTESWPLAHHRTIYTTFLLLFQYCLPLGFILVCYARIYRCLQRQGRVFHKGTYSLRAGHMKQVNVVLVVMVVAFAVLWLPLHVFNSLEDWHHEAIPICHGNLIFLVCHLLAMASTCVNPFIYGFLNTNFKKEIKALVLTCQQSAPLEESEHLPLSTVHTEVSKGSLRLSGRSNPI

EC50 (human NPY5 receptor) [nM]	EC50 (human NPY2 receptor) [nM]	EC50 (human NPY4 receptor) [nM]	Ki [1, 3] [nM]	Ki [1, 4] [nM]	Ki [1, 5] [nM]	Ki [2, 6] [nM]	Ki [2, 7] [nM]	EC50 (human NPY1 receptor) [nM]	Structure (SMILES)	Acute Food Intake 24 h [% vehicle] (normal NMRI mice)
> 5000	0.15	> 5000	6.3	6.3	6.3	0.63	4.9	> 5000	CC[C@H](C)[C@H](NC(=O)[C@H](CCC(=O)O)NC(=O)[C@H](CCC(=O)O)NC(=O)[C@@H]1CCCN1C(=O)[C@H](CO)NC(=O)[C@H](C)NC(=O)[C@H](CC(=O)O)NC(=O)[C@H](CCC(=O)O)NC(=O)[C@H](CCC(=O)O)NC(=O)[C@@H]1CCCN1C(=O)[C@H](CCCCNC(=O)COCCOCCNC(=O)COCCOCCNC(=O)CC[C@H](NC(=O)CCCCCCCCCCCCCCCCC(=O)O)C(=O)O)NC(=O)[C@H](C)NC(=O)[C@@H]1CCCN1C(=O)[C@H](C)NC(=O)CC(C)C)C(=O)N[C@@H](CCC(N)=O)C(=O)N[C@@H](CCCNC(=N)N)C(=O)N[C@@H](Cc1ccc(O)cc1)C(=O)N[C@@H](Cc1ccc(O)cc1)C(=O)N[C@H](C(=O)N[C@@H](CO)C(=O)N[C@@H](CC(C)C)C(=O)N[C@@H](CCCNC(=N)N)C(=O)N[C@@H](Cc1c[nH]cn1)C(=O)N[C@@H](Cc1ccc(O)cc1)C(=O)N[C@@H](Cc1ccc(O)cc1)C(=O)N[C@@H](CC(N)=O)C(=O)N[C@@H](Cc1c[nH]c2ccccc12)C(=O)N[C@@H](CC(C)C)C(=O)N[C@H](C(=O)N[C@@H](CCCNC(=N)N)C(=O)N[C@@H](CCC(N)=O)C(=O)N[C@@H](CCCNC(=N)N)C(=O)N[C@@H](Cc1ccc(O)cc1)C(N)=O)[C@@H](C)O)C(C)C [Compound 23, N{alpha-4}-(3-methylbutanoyl)-N{epsilon-7}-[2-(2-{2-[2-(2-{2-[(4S)-4-carboxy-4-(17-carboxyheptadecanamido)butanamido]ethoxy}ethoxy)acetamido]ethoxy}ethoxy)acetamido]-[4A,6A,7K,9E,17I,18Q,22V,28Y,30W,31L]hPYY (4-36)]	–
> 5000	0.119	> 5000	3.4	3.1	2.5	0.24	2	> 5000	CC[C@H](C)[C@H](NC(=O)[C@H](CCC(=O)O)NC(=O)[C@H](CCC(=O)O)NC(=O)[C@@H]1CCCN1C(=O)[C@H](CO)NC(=O)[C@H](C)NC(=O)[C@H](CC(=O)O)NC(=O)[C@H](C)NC(=O)[C@H](CCC(=O)O)NC(=O)[C@@H]1CCCN1C(=O)[C@H](CCCCNC(=O)COCCOCCNC(=O)COCCOCCNC(=O)CC[C@H](NC(=O)CCCCCCCCCCCCCCCCC(=O)O)C(=O)O)NC(=O)[C@H](CCC(=O)O)NC(=O)[C@@H]1CCCN1C(=O)[C@H](C)NC(=O)CC(C)C)C(=O)N[C@@H](CCC(N)=O)C(=O)N[C@@H](CCCNC(=N)N)C(=O)N[C@@H](Cc1ccc(O)cc1)C(=O)N[C@@H](Cc1ccc(O)cc1)C(=O)N[C@H](C(=O)N[C@@H](CO)C(=O)N[C@@H](CC(C)C)C(=O)N[C@@H](CCCNC(=N)N)C(=O)N[C@@H](Cc1c[nH]cn1)C(=O)N[C@@H](Cc1ccc(O)cc1)C(=O)N[C@@H](Cc1ccc(O)cc1)C(=O)N[C@@H](CC(N)=O)C(=O)N[C@@H](Cc1c[nH]c2ccccc12)C(=O)N[C@@H](CC(C)C)C(=O)N[C@H](C(=O)N[C@@H](CCCNC(=N)N)C(=O)N[C@@H](CCC(N)=O)C(=O)N[C@@H](CCCNC(=N)N)C(=O)N[C@@H](Cc1ccc(O)cc1)C(N)=O)[C@@H](C)O)C(C)C [Compound 53, N{alpha-4}-(3-methylbutanoyl)-N{epsilon-7}-[2-(2-{2-[2-(2-{2-[(4S)-4-carboxy-4-(17-carboxyheptadecanamido)butanamido]ethoxy}ethoxy)acetamido]ethoxy}ethoxy)acetamido]-[4A,7K,9E,10A,17I,18Q,22V,28Y,30W,31L]hPYY (4-36)]	–
> 5000	0.106	> 5000	–	–	–	3.09	–	> 5000	CC(C)CC(=O)N[C@@H](C)C(=O)N1CCC[C@H]1C(=O)N[C@@H](CCC(=O)O)C(=O)N[C@@H](CCCCNC(=O)COCCOCCNC(=O)COCCOCCNC(=O)CC[C@H](NC(=O)CCCCCCCCCCCCCCCCC(=O)O)C(=O)O)C(=O)N1CCC[C@H]1C(=O)N[C@@H](CCC(=O)O)C(=O)N[C@@H](CCC(=O)O)C(=O)N[C@@H](CC(=O)O)C(=O)N[C@@H](C)C(=O)N[C@@H](CCC(=O)O)C(=O)N1CCC[C@H]1C(=O)N[C@@H](CCC(=O)O)C(=O)N[C@@H](CCC(=O)O)C(=O)N[C@@H](CC(C)C)C(=O)N[C@@H](CCC(N)=O)C(=O)N[C@@H](CCCNC(=N)N)C(=O)N[C@@H](Cc1ccc(O)cc1)C(=O)N[C@@H](Cc1ccc(O)cc1)C(=O)N[C@H](C(=O)N[C@@H](CO)C(=O)N[C@@H](CC(C)C)C(=O)N[C@@H](CCCNC(=N)N)C(=O)N[C@@H](Cc1c[nH]cn1)C(=O)N[C@@H](Cc1ccc(O)cc1)C(=O)N[C@@H](Cc1ccc(O)cc1)C(=O)N[C@@H](CC(N)=O)C(=O)N[C@@H](Cc1c[nH]c2ccccc12)C(=O)N[C@@H](CC(C)C)C(=O)N[C@H](C(=O)N[C@@H](CCCNC(=N)N)C(=O)N[C@@H](CCC(N)=O)C(=O)N[C@@H](CCCNC(=N)N)C(=O)N[C@@H](Cc1ccc(O)cc1)C(N)=O)[C@@H](C)O)C(C)C [Compound 188, N{alpha-4}-(3-methylbutanoyl)-N{epsilon-7}-[2-(2-{2-[2-(2-{2-[(4S)-4-carboxy-4-(17-carboxyheptadecanamido)butanamido]ethoxy}ethoxy)acetamido]ethoxy}ethoxy)acetamido]-[4A,7K,9E,13E,18Q,22V,28Y,30W,31L]hPYY (4-36)]	55
